Results from patent US9598405B2, “Thiazole-substituted aminopyridines as spleen tyrosine kinase inhibitors” (Merck Sharp & Dohme Corp., priority 2012, dated 2017).

Legend:
[1] = phase II clinical trial, allergic rhinitis; cited from earlier work
PGD2 = settings: dosed intranasally, phase I/II study, allergic rhinitis; cited from earlier work
[2] = molecular target: recombinant human GST-SYK (Homo sapiens (Human), UniProt P43405); assay: Homogeneous Time-Resolved Fluorescence (HTRF) assay for the recombinant human Syk enzyme; type: biochemical
Experimental: Homogeneous Time-Resolved Fluorescence (HTRF) Assay for the Recombinant Human Syk Enzyme
A recombinant GST-hSYK fusion protein was used to measure potency of compounds to inhibit human Syk activity. […] Final volume of the reaction was 10 μL. […] To quench the reaction and detect the phosphorylated product, 2 nM of a Europium-anti-phosphotyrosine antibody (Perkin Elmer #AD0161) and 70 nM SA-APC (Perkin-Elmer #CR130-100) were added together in 15 mM Tris pH 7.5, 40 mM EDTA, 0.01% tween 20. Final volume of the quenching solution was […]. The resulting HTRF signal was measured after 30 minutes on an EnVision (Perkin-Elmer) reader using a time-resolved fluorescence protocol.

| SMILES | efficacy versus placebo [1] | change in PGD2 (PGD2) | clinical safety (PGD2) | IC50 [2] [µM] |
| --- | --- | --- | --- | --- |
| Oc1cccc(Nc2ncc(F)c(Nc3cccc(O)c3)n2)c1 [Example R112] | lack of efficacy | statistically significant decrease | safe across a range of indicators | – |
| COCc1cc(Nc2cc(C(F)(F)F)ccn2)nc(-c2cnc([C@]3(O)CC[C@@H](C(=O)OC)C(C)(C)C3)s2)c1 (single isomer, unassigned) [Example 4.8, methyl (1R,4S or 1S,4R)-4-hydroxy-4-{5-[4-(methoxymethyl)-6-{[4-(trifluoromethyl)pyridin-2-yl]amino}pyridin-2-yl]-1,3-thiazol-2-yl}-2,2-dimethylcyclohexanecarboxylate] | – | – | – | 1.17 |
